Measurements published in patent publication US20180169045A1, “AMINO ACID COMPOSITIONS AND METHODS FOR THE TREATMENT OF LIVER DISEASES” (AXCELLA HEALTH INC., priority 2016, published 2018).

Experiments:
Assay type in all cases: cell-based
[1] = system: Primary human hepatic stellate cells; test: TNFα-induced IL-6 secretion in primary human hepatic stellate cells (ELISA); settings: for IL-6 cytokine secretion, in words: primary human hepatic stellate cells from two donors, 3 ng/mL TNFα, 12 h
Protocol: (§1) Primary human hepatic stellate cells were obtained from Samsara Sciences based on the following criteria for selecting donors: adult age (between 18 and 50 years), normal BMI (>18.5 and <25), and absence of confounding liver disease. Primary human hepatic stellate cells grown in Complete HSC Medium to ˜80% confluence in T75 or T150 flasks below passage 10 were seeded into sterile, collagen I coated, 96-well optical plastic microplates (ThermoScientific, 152036) at 4000 cells per well (˜1250 cells per cm^2) and incubated for 6 hours at 37° C., 5% CO2 in a humidified incubator.
(§2) After 6 hours, plates were removed from the incubator and the medium gently pipetted off and washed once with 150 μL per well DPBS. The DPBS was removed and the pretreatment medium (±single amino acid dropout, 1×HMDB DMEM+3% dialyzed FBS+0.2% Primocin, ±supplemental amino acid dose; see experiment for medium composition) was applied to the cells at 150 μL per well. Plates were returned to the incubator overnight, ˜14-15 hours.
(§3) After overnight pretreatment, the medium was removed from the cells, and the same pretreatment medium, now supplemented with 3 ng/mL TNFα is applied. Each plate contained 3 ng/mL TNFα in 1× human plasma amino acid (HMDB or PAA) concentration medium, 0 ng/mL in 1×HMDB, and 3 ng/mL TNFα+50 nM Bengamide in 1×HMDB to serve as controls. Plates were incubated for 12 hours at 37° C., 5% CO2.
(§4) After 12 hour stimulus with TNFα, supernatant was removed and frozen at −80° C. in two separate aliquots. Plates were washed gently once with DPBS and 100 μL per well of 1×HMDB DMEM+3% dialyzed FBS+0.2% Primocin+10% CCK-8 viability reagent (Dojindo). Plates were incubated for 1 hour at 37° C., 5% CO2.
(§5) After 1 hour of incubation, viability was measured on the Synergy plate reader (Absorbance at 977 (test), 900 (reference), and 450 (CCK8) nm). Immediately, the medium was removed and the plates were fixed with 70 μL per well 4% paraformaldehyde in PBS at room temperature for 20 minutes, followed by two 150 μL PBS washes, and stored with 100 μL per well PBS at 4° C. until immunofluorescence staining.
(§6) Human CCL2/MCP1 and Human IL-6 were measured by ELISA (Human […] DuoSet ELISA, R&D Systems; Human IL-6 DuoSet ELISA, R&D Systems) at 1/5 and 1/20 dilution in 1× Reagent Diluent (Reagent Ancillary Kit 2, R&D Systems). Data were normalized to the specific per well cell density determined by Hoechst stained nuclei count.

[2] = system: Primary human hepatic stellate cells; test: TNFα-induced MCP-1 secretion in primary human hepatic stellate cells (ELISA); settings: for MCP-1 chemokine secretion, in words: primary human hepatic stellate cells from two donors, 3 ng/mL TNFα, 12 h
Protocol: as §1, §2, §3, §4, §5, §6

[3] = system: Primary human hepatic stellate cells; test: TGFβ1-induced procollagen Iα1 secretion in primary human hepatic stellate cells (ELISA); settings: for procollagen Iα1 secretion, in words: primary human hepatic stellate cells from three donors, 3 ng/mL TGFβ1, 24 h
Protocol: as §1, with “disease. Cells” for “disease. Primary human hepatic stellate cells”, “at 6000” for “at 4000”, “[…])” for “per cm^2)”, “incubated overnight” for “incubated for 6 hours”, “humidified incubator in DMEM with 2% Fetal Bovine Serum and 1% Antibiotic-Antimycotic.” for “humidified incubator.”
After the overnight incubation, plates were removed from the incubator and the medium was gently pipetted off and washed twice with 150 μL per well DPBS. The DPBS was removed and the pretreatment medium (±single amino acid dropout, 1×HMDB DMEM+1% Antibiotic-Antimycotic, 10 mM HEPES, ±supplemental amino acid dose; see experiment for medium composition) was applied to the cells at 150 μL per well. Plates were returned to the incubator for 10.5 hours.
After 10.5 hour pretreatment, the medium was removed from the cells, and the same pretreatment medium, now supplemented with 3 ng/mL TGFβ1, was applied. Each plate contained 3 ng/mL TGFβ1 in 1× human plasma amino acid (HMDB or PAA) concentration medium, 0 ng/mL in 1×HMDB, and 3 ng/mL TGFβ1+20 μM Silybin in 1×HMDB to serve as controls. Plates were then incubated for 24 hours at 37° C., 5% CO2.
After 24 hour stimulus, supernatant was removed and frozen at −80° C. in two separate aliquots. The cells were then washed with 125 μL per well Buffer FCW (FastLane Cell Multiplex NR Kit, Qiagen, 216713). The wash buffer was immediately removed and 50 μL of Cell Processing Mix (containing genomic DNA Wipeout buffer) was applied to lyse cells, incubating for 10 minutes at room temperature. RNA lysate was then transferred to 96-well qPCR plates, sealed, and gDNA was digested on thermal cycler at 75° C. for 5 minutes. RNA lysate was frozen at −80° C.
Human Procollagen Iα1 was measured from the supernatant by ELISA (Human Pro-Collagen I alpha 1 DuoSet ELISA, R&D Systems) at 1/100 dilution in 1× Reagent Diluent (Reagent Ancillary Kit 2, R&D Systems).

In the case of `CC(C)C[C@H](N)C(=O)O` [Leucine, L-Leucine], the “Fold Change IL-6 Secretion Normalized Per Cell, Mean” value ([1]; donor 1, Conc. 3054 μM) was 1.1762, the “Fold Change IL-6 Secretion Normalized Per Cell, Mean” value ([1]; donor 1, Conc. 7635 μM) was 1.1215 and the “Fold Change IL-6 Secretion Normalized Per Cell, Mean” value ([1]; donor 1, Conc. 15270 μM) was 1.0767. For the same compound, the “Fold Change IL-6 Secretion Normalized Per Cell, Mean” value ([1]; donor 2, Conc. 3054 μM) was 1.0011, the “Fold Change IL-6 Secretion Normalized Per Cell, Mean” value ([1]; donor 2, Conc. 7635 μM) was 0.9574 and the “Fold Change IL-6 Secretion Normalized Per Cell, Mean” value ([1]; donor 2, Conc. 15270 μM) was 1.0183. For the same compound, the “IL-6 cytokine secretion, in words” value [1] was “no significant effect”, the “Fold Change MCP1 Secretion Normalized Per Cell, Mean” value ([2]; donor 3, 3054 μM) was 1.1479 and the “Fold Change MCP1 Secretion Normalized Per Cell, Mean” value ([2]; donor 3, 7635 μM) was 1.3054. For the same compound, the “Fold Change MCP1 Secretion Normalized Per Cell, Mean” value ([2]; donor 3, 15270 μM) was 1.1808, the “Fold Change MCP1 Secretion Normalized Per Cell, Mean” value ([2]; donor 4, 3054 μM) was 1.5342 and the “Fold Change MCP1 Secretion Normalized Per Cell, Mean” value ([2]; donor 4, 7635 μM) was 1.7129. The “Fold Change MCP1 Secretion Normalized Per Cell, Mean” value ([2]; donor 4, 15270 μM) was 1.5745, the “MCP-1 chemokine secretion, in words” value [2] was “no significant impact” and the “Procollagen Iα1 Secretion (Fold Change of 1X), Mean” value ([3]; first donor, Conc. 153 μM (baseline)) was 1.0000 fold. The “Procollagen Iα1 Secretion (Fold Change of 1X), Mean” value ([3]; second donor, Conc. 153 μM (baseline)) was 1.0000 fold and the “Procollagen Iα1 Secretion (Fold Change of 1X), Mean” value ([3]; third donor, Conc. 153 μM (baseline)) was 1.0000 fold.
In the case of `CC[C@H](C)[C@H](N)C(=O)O` [Isoleucine, L-Isoleucine], the “Fold Change IL-6 Secretion Normalized Per Cell, Mean” value ([1]; donor 1, Conc. 1328 μM) was 1.0233, the “Fold Change IL-6 Secretion Normalized Per Cell, Mean” value ([1]; donor 1, Conc. 3320 μM) was 1.1156 and the “Fold Change IL-6 Secretion Normalized Per Cell, Mean” value ([1]; donor 1, Conc. 6639 μM) was 1.0859. For the same compound, the “Fold Change IL-6 Secretion Normalized Per Cell, Mean” value ([1]; donor 2, Conc. 1328 μM) was 1.1020, the “Fold Change IL-6 Secretion Normalized Per Cell, Mean” value ([1]; donor 2, Conc. 3320 μM) was 0.9096 and the “Fold Change IL-6 Secretion Normalized Per Cell, Mean” value ([1]; donor 2, Conc. 6639 μM) was 1.1648. For the same compound, the “IL-6 cytokine secretion, in words” value [1] was “no significant effect”, the “Fold Change MCP1 Secretion Normalized Per Cell, Mean” value ([2]; donor 3, 1328 μM) was 1.5550 and the “Fold Change MCP1 Secretion Normalized Per Cell, Mean” value ([2]; donor 3, 3320 μM) was 1.2169. The “Fold Change MCP1 Secretion Normalized Per Cell, Mean” value ([2]; donor 3, 6639 μM) was 1.2084, the “Fold Change MCP1 Secretion Normalized Per Cell, Mean” value ([2]; donor 4, 1328 μM) was 1.3338 and the “Fold Change MCP1 Secretion Normalized Per Cell, Mean” value ([2]; donor 4, 3320 μM) was 0.8830. For the same compound, the “Fold Change MCP1 Secretion Normalized Per Cell, Mean” value ([2]; donor 4, 6639 μM) was 0.9103, the “procollagen Iα1 secretion, in words” value [3] was “significantly increased procollagen Iα1 secretion in two of three donors” and the “Procollagen Iα1 Secretion (Fold Change of 1X), Mean” value ([3]; second donor, Conc. 66 μM (baseline)) was 1.0000 fold. For the same compound, the “Procollagen Iα1 Secretion (Fold Change of 1X), Mean” value ([3]; third donor, Conc. 66 μM (baseline)) was 1.0000 fold.
In the case of `N=C(N)NCCC[C@H](N)C(=O)O` [Arginine, L-Arginine], the “IL-6 cytokine secretion, in words” value [1] was “no significant effect”, the “MCP-1 chemokine secretion, in words” value [2] was “no significant impact” and the “Procollagen Iα1 Secretion (Fold Change of 1X), Mean” value ([3]; first donor, Conc. 109 μM (baseline)) was 1.0000 fold. The “procollagen Iα1 secretion, in words” value [3] was “significantly increased procollagen Iα1 secretion in two of three donors”, the “Procollagen Iα1 Secretion (Fold Change of 1X), Mean” value ([3]; second donor, Conc. 109 μM (baseline)) was 1.0000 fold and the “Procollagen Iα1 Secretion (Fold Change of 1X), Mean” value ([3]; third donor, Conc. 109 μM (baseline)) was 1.0000 fold.
